Laboratory results from patent publication US6716833B2, “Acetylenic α-amino acid-based sulfonamide hydroxamic acid tace inhibitors” (priority 1999, dated 2004).
Counter-ions that a name gives are not always drawn.

Assays:
Format in all cases: biochemical
MMP-9 = MMP-9 (Homo sapiens, UniProt P14780); experiment: MMP-9 inhibition (thiopeptide or fluorescent peptide substrate); conditions: read-out: MMP-9 IC50
MMP-1 = target: T1, MMP-1 (Homo sapiens, UniProt P03956); experiment: MMP-1 inhibition (thiopeptide or fluorescent peptide substrate); conditions: read-out: MMP-1 IC50
T1 sequence (P03956 100-469): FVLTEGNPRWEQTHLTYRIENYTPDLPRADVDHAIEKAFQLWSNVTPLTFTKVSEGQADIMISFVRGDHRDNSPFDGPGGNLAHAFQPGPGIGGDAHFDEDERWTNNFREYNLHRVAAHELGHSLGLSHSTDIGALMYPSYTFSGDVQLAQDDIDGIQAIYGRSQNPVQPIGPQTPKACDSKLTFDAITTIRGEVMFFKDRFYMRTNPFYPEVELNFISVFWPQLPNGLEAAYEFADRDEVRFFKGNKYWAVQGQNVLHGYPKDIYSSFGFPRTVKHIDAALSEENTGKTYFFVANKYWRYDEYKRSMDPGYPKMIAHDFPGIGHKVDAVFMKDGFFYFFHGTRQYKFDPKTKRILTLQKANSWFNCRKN

MMP-13 = MMP-13 (Homo sapiens, UniProt P45452); experiment: MMP-13 inhibition (thiopeptide or fluorescent peptide substrate); conditions: read-out: MMP-13 IC50
[1] = target: TNF-α converting enzyme (TACE) (Homo sapiens, UniProt P78536); experiment: TACE inhibition (fluorescent peptidyl substrate); conditions: read-out: TACE IC50
Chain of TNF-α converting enzyme (TACE) (P78536 215-824, species assumed): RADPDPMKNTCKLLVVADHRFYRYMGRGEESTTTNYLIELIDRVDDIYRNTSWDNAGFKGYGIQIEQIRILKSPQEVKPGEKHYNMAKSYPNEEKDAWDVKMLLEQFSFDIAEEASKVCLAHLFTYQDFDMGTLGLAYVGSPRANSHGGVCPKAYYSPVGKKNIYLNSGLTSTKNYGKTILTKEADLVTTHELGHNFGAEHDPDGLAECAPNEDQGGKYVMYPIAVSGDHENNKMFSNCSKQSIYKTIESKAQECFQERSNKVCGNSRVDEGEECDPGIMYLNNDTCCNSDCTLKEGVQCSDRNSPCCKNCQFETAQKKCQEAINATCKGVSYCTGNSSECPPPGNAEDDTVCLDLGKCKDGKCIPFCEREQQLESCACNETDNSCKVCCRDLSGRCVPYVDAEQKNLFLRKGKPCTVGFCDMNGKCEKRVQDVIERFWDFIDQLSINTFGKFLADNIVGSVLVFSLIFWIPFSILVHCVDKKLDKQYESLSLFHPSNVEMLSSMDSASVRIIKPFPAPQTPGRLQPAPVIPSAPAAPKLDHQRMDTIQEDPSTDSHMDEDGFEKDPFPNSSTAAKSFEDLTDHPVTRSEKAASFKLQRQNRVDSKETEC

Chain of MMP-9 (P14780 94-707): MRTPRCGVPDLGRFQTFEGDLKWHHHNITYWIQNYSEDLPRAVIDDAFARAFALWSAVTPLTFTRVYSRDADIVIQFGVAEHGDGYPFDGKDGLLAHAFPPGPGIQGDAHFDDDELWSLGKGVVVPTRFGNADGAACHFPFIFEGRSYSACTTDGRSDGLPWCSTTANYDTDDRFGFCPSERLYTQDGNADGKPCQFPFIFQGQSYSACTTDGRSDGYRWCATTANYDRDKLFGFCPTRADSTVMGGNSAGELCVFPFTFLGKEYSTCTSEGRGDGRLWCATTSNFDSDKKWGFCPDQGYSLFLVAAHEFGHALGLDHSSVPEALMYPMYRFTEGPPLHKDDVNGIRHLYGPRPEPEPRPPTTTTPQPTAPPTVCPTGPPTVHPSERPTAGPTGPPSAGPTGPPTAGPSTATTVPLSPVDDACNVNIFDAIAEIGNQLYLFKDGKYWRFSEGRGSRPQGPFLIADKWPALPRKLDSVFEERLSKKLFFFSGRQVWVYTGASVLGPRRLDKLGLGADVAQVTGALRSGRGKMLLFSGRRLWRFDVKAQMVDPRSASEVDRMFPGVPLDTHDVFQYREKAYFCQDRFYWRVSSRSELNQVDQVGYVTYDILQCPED

| Structure (SMILES) | IC50 (MMP-9) [nM] | IC50 (MMP-1) [nM] | IC50 (MMP-13) [nM] | IC50 [1] [nM] |
| --- | --- | --- | --- | --- |
| CC#CCOc1ccc(S(=O)(=O)N(CCCCN(CC)CC)C(C(=O)NO)C(C)C)cc1 (stereo not shown) [Example 121, 2-{{[4-(2-Butynyloxy)phenyl]sulfonyl}[4-(diethylamino)butyl]amino}-N-hydroxy-3-methylbutanamide] | 256 | 120 | 114 | 177 |
| CC#CCOc1ccc(S(=O)(=O)N(CCCCN2CCN(C)CC2)C(C(=O)NO)C(C)C)cc1 (stereo not shown) [Example 122, 2-{{[4-(2-Butynyloxy)phenyl]sulfonyl}[4-(4-methyl-1-piperazinyl)butyl]amino}-N-hydroxy-3-methylbutanamide] | 135 | 86 | 50 | 128 |
| CC#CCOc1ccc(S(=O)(=O)N(CCN2CCOCC2)C(C(=O)NO)C(C)C)cc1 (stereo not shown) [Example 123, 2-[[[4-(2-Butynyloxy)phenyl]sulfonyl][2-(4-morpholinyl)ethyl]amino]-N-hydroxy-3-methylbutanamide] | 628 | 244 | 89 | 102 |
| CC#CCOc1ccc(S(=O)(=O)N(CCN2CCOCC2)CC(=O)NO)cc1 [Example 124, 2-[{[4-(but-2-ynyloxy)Phenyl]sulfonyl}(2-morpholin-4-ylethyl)amino]-N-hydroxyacetamide Hydrochloride] | 211 | 1770 | 54 | 13 |
| CC#CCOc1ccc(S(=O)(=O)N(CC#CCN2CCN(C)CC2)C(C(=O)NO)C(C)C)cc1 (stereo not shown) [Example 125, 2-{{[4-(2-Butynyloxy)phenyl]sulfonyl}[4-(4-methyl-1-piperazinyl)-2-butynyl]amino}-N-hydroxy-3-methylbutanamide] | 846 | 505 | 151 | 108 |
| CC#CCOc1ccc(S(=O)(=O)N(C)[C@@H](C(=O)NO)C2CCC(N(CC)CC)CC2)cc1 (stereo partly drawn) [Example 128, ((2R)-{[4-(2-Butynyloxy)phenyl]sulfonyl}(methyl)amino)[(4-diethylamino)cyclohexyl]-N-hydroxyethamide] | 184 | 2370 | 212 | 376 |
| CC#CCOc1ccc(S(=O)(=O)N(C)CC(=O)NO)cn1 [Example 131, 2-[(6-but-2-ynyloxy-Pyridine-3-sulfonyl)-methyl-amino]-N-hydroxy-acetamide] | 402 | ~10000 | 428 | 29 |
| CC#CCOc1ccc(S(=O)(=O)N(CC#CCN2CCN(C)CC2)C(C)C(=O)NO)cc1 (stereo not shown) [Example 135] | 142 | 921 | 66 | 21 |
| CC#CCOc1ccc(S(=O)(=O)N(C)C(C(=O)NO)C(C)(C)SCCN2CCOCC2)cc1 (stereo not shown) [Example 140, 2-({[4-(2-Butynyloxy)phenyl]sulfonyl)(methyl)amino]-N-hydroxy-3 Methyl-3-[(2(4-morpholinylethyl)sulfanyl]-butanamide Hydrochloride] | 103 | 45 | 9.2 | 86 |
| CC#CCOc1ccc(S(=O)(=O)NC(C(=O)NO)c2ccc(O)cc2)cc1 (stereo not shown) [Example 176, 2-({[4-(2-Butynyloxy)phenyl]sulfonyl}amino)-N-hydroxy-2-(4-hydroxyphenyl)acetamide] | 898 | ~10000 | 103 | 4 |
| C#CCOc1ccc(C(NS(=O)(=O)c2ccc(OCC#CC)cc2)C(=O)NO)cc1 (stereo not shown) [Example 177, 2-({[4-(2-Butynyloxy)phenyl]sulfonyl}amino)-N-hydroxy-2-[4(2-propynyloxy)phenyl]acetamide] | 310 | < 10000 | 57 | 4.8 |
| CC#CCOc1ccc(S(=O)(=O)N(C)C(C(=O)NO)c2ccc(OCCN3CCCC3)cc2)cc1 (stereo not shown) [Example 183, 2-[{[4-(2-Butynyloxy)phenyl]sulfonyl}(methyl)amino]-N-hydroxy-2-{4-[2-(1-pyrrolidinyl)ethoxy]phenyl}acetamide] | 55 | 497 | 42 | 40 |
| CC#CCOc1ccc(S(=O)(=O)N(C)C(C(=O)NO)c2ccc(OCCN3CCCC3=O)cc2)cc1 (stereo not shown) [Example 184, 2-[{[4-(2-Butynyloxy)phenyl]sulfonyl}(methyl)amino]-N-hydroxy-2-{4-[2-(2-oxo-1-pyrrolidinyl)ethoxy]phenyl}acetamide] | 55 | 434 | 11 | 35 |

Molecules with a lower IC50 (MMP-9), results first:

| IC50 (MMP-9) [nM] | IC50 (MMP-1) [nM] | IC50 (MMP-13) [nM] | IC50 [1] [nM] | Structure (SMILES) |
| --- | --- | --- | --- | --- |
| 53 | 187 | 37 | 104 | CC#CCOc1ccc(S(=O)(=O)N(CC#CCNC)C(C(=O)NO)C(C)C)cc1 (stereo not shown) [Example 127, 2-{{[4-(2-Butynyloxy)phenyl]sulfonyl}[4-(methylamino)-2-butynyl]amino}-N-hydroxy-3-methylbutanamide] |
| 26 | 16 | 5.9 | 60 | CC#CCOc1ccc(S(=O)(=O)N(C)C(C(=O)NO)C(C)(C)SCCn2ccnc2)cc1 (stereo not shown) [Example 144, 2-({[4-(2-Butynyloxy)phenyl]sulfonyl)(methyl)amino]-N-hydroxy-3 Methyl-3-{[2-(1H-imidazol-1-yl)ethyl]sulfanyl}butanamide] |
| 31 | 24 | 14 | 31 | CC#CCOc1ccc(S(=O)(=O)N(C)C(C(=O)NO)C(C)(C)SCCC)cc1 (stereo not shown) [Example 151, 2-[(4-but-2-ynyloxy-Benenesulfonyl)-methyl-amino]-N-hydroxy-3-methyl-3-propylsulfanyl-butyramide] |
| 43 | 482 | 14 | 23 | CC#CCOc1ccc(S(=O)(=O)N(C)C(C(=O)NO)c2ccc(OC)cc2)cc1 (stereo not shown) [Example 178, 2-[{[4-(2-Butynyloxy)phenyl]sulfonyl}(methyl)amino]-N-hydroxy-2-(4-methoxyphenyl)acetamide] |
| 29 | 546 | 11 | 52 | CC#CCOc1ccc(S(=O)(=O)N(C)C(C(=O)NO)c2ccc(OCCN3CCOCC3)cc2)cc1 (stereo not shown) [Example 179, 2-[{[4-(2-Butynyloxy)phenyl]sulfonyl}(methyl)amino]-N-hydroxy-2-{4-[2-(4-morpholinyl)ethoxy]phenyl}acetamide] |
| 34 | 599 | 9.3 | 265 | CC#CCOc1ccc(S(=O)(=O)N(C)C(C(=O)NO)c2ccc(OCCNC(=O)OC(C)(C)C)cc2)cc1 (stereo not shown) [Example 180, tert-Butyl 2-(4-[1-[{[4-(2-Butynyloxy)phenyl]sulfonyl}(methyl)amino]-2-(hydroxyamino)-2-oxoethyl]phenoxy}ethylcarbamate] |
| 26 | 645 | 24 | 16 | CC#CCOc1ccc(S(=O)(=O)N(C)C(C(=O)NO)c2ccc(OCCN)cc2)cc1 (stereo not shown) [Example 181, 2-[4-(2-Aminoethoxy)phenyl]-2-[{[4-(2-butynyloxy)phenyl]sulfonyl}(methyl)amino]-N-hydroxyacetamide] |
| 22 | 487 | 15 | 16 | CC#CCOc1ccc(S(=O)(=O)N(C)C(C(=O)NO)c2ccc(OCCN(C)C)cc2)cc1 (stereo not shown) [Example 182, 2-[{[4-(2-Butynyloxy)phenyl]sulfonyl}(methyl)amino]-2-{4-[2-(dimethylamino)ethoxy]phenyl}-N-hydroxyacetamide] |
| 53 | 839 | 27 | 309 | CC#CCOc1ccc(S(=O)(=O)N(C)C(C(=O)NO)c2ccc(OCCN3CCN(C(=O)OC(C)(C)C)CC3)cc2)cc1 (stereo not shown) [Example 185, tert-Butyl 4-(2-{4-[1-[{[4-(2-Butynyloxy)phenyl]sulfonyl}(methyl)amino]-2-(hydroxyamino)-2-oxoethyl]phenoxy}ethyl)-1-piperazinecarboxylate] |
| 32 | 568 | 21 | 31 | CC#CCOc1ccc(S(=O)(=O)N(C)C(C(=O)NO)c2ccc(OCCN3CCNCC3)cc2)cc1 (stereo not shown) [Example 186, 2-[{[4-(2-butynyloxy)phenyl]sulfonyl}(methyl)amino]-N-hydroxy-2-{4-[2-(1-piperazinyl)ethoxy]phenyl}acetamide] |
| 46 | 910 | 13 | 199 | CC#CCOc1ccc(S(=O)(=O)N(C)C(C(=O)NO)c2ccc(OCCCNC(=O)OC(C)(C)C)cc2)cc1 (stereo not shown) [Example 187, tert-Butyl 3-{4-[1-[{[4-(2-Butynyloxy)phenyl]sulfonyl}(methyl)amino]-2-(hydroxyamino)-2-oxoethyl]phenoxy}propylcarbamate] |
| 48 | 469 | 41 | 25 | CC#CCOc1ccc(S(=O)(=O)N(C)C(C(=O)NO)c2ccc(OCCCN)cc2)cc1 (stereo not shown) [Example 188, 2-[4-(3-Aminopropoxy)phenyl]-2-[{[4-(2-butynyloxy)phenyl]sulfonyl}(methyl)amino]-N-hydroxyacetamide] |
